The term inhibition denotes the drop in the measured response relative to a control, in per cent.

This test concerns the target Glutathione S-transferase omega-1 (Homo sapiens) (UniProt P78417). As to the kind of experiment: alkyne analogs labeling GSTO1 in proteome, late-stage follow-up, mechanism study for GSTO1 inhibitor project, cell lysate, MDA-MB-435 proteome, click chemistry, set 2 (AID 463101). As to conditions: MDA-MB-435 soluble proteome, gel ABPP fluorescence; for outcome / labeling: direct click chemistry labeling assay; for labeling: click chemistry direct labeling series, at 0.25 µM, stronger effect = higher value; for inhibition: in situ competitive ABPP, probe SE-Rh, at 1 µM (top of the series).

Calls of active or inactive are those of the source.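 The calls were made as follows: active = at 63 nM, GSTO1 inhibition of at least 80% or band labeling of at least 80% relative to 1 µM; inactive = the rest.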

Chain of Glutathione S-transferase omega-1 (Homo sapiens) (P78417 whole entry, looked up): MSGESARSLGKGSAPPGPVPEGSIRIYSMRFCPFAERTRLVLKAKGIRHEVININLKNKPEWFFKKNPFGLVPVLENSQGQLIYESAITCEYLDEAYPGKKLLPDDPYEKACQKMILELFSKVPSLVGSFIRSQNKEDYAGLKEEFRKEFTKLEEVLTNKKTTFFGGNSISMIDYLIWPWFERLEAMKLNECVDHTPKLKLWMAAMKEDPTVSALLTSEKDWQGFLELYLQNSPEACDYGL

`C#CCN(CCCN(C(=O)CCl)c1ccc([N+](=O)[O-])cc1)C(=O)C(F)(F)F`: the outcome was active, the labeling came to 94% and the inhibition is 100%.
The corresponding values for `C#CCCC(=O)NCCCN(C(=O)CCl)c1ccc([N+](=O)[O-])cc1` are “inactive”, 77% and 100% (inactive).

(Values after PubChem BioAssay AID463101 (The Scripps Research Institute Molecular Screening Center, 2010).)
